pIC50, pKi: −log10 of the molar value. Ends that are not written are not given here.
Assays:
[1] = test system: acute attacks of migraine; settings: clinical trials; cited from earlier work
facial blood flow [2] = settings: marmoset, electrical stimulation of the trigeminal ganglion; cited from earlier work
endogenous CGRP receptor = endogenous CGRP receptor (Homo sapiens, UniProt O60894+Q16602); assay: CGRP functional antagonism using SK-N-MC-BLA (4C10), β-lactamase transcriptional reporter assay; assay type: cell-based; settings: SK-N-MC (4C10) cells, inhibition of β-lactamase expression in the presence of 200 pM CGRP
[3] = molecular target: T1, CGRP receptor (SK-N-MC membrane) (Homo sapiens, UniProt O60894+Q16602); assay: I125-CGRP binding displacement assay on purified SK-N-MC membrane
T1 construct: Purified SK-N-MC membrane was purchased from Perkin Elmer; purchased Perkin Elmer; host or cells: SK-N-MC membrane
Summary of the method: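 Human SK-N-MC membranes incubated with compounds and I125-CGRP for 2 h at room temperature in 25 mM Tris-HCl pH 7.4, 5 mM MgCl2, 0.1% BSA, 0.05% Tween, then filtered and counted. Nonspecific binding defined with 1 uM unlabelled CGRP; percent displacement fitted to curves.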

middle meningeal artery = settings: rats, electrical stimulation of the dura mater, prior administration; cited from earlier work
facial blood flow [4] = settings: rat, trigeminal ganglion stimulation; cited from earlier work

Sequence of endogenous CGRP receptor (Q16602 23-461): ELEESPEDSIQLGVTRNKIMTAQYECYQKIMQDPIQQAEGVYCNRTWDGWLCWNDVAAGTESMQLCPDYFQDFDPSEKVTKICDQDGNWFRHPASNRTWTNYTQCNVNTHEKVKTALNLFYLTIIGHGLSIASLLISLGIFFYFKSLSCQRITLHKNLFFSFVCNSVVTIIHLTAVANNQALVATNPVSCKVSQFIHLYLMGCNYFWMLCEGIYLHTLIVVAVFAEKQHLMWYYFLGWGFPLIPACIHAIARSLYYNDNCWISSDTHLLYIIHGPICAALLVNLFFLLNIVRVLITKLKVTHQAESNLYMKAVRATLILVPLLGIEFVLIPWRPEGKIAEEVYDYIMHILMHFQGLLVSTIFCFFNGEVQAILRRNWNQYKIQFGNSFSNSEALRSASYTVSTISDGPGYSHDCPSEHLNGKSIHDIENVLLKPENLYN
Sequence of endogenous CGRP receptor (O60894 27-148): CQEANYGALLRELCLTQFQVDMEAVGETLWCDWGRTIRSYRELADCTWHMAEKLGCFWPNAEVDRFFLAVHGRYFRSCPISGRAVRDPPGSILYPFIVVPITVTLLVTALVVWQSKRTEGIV
T1 sequence (Q16602 23-461): as the sequence (Q16602 23-461) above
T1 sequence (O60894 27-148): as the sequence (O60894 27-148) above

Row | pIC50 (endogenous CGRP receptor) | pKi [3] | Compound | further results
1 | – | – | NCCCC[C@H](NC(=O)[C@@H](Cc1cc(Br)c(O)c(Br)c1)NC(=O)N1CCC(N2Cc3ccccc3NC2=O)CC1)C(=O)N1CCN(c2ccncc2)CC1 [BIBN4096BS] | efficacy in acute attacks of migraine [1]: effective in treating acute attacks of migraine; effect on increase in facial blood flow (facial blood flow [2]): blocked
2 | > 6.00 | > 6.00 | CC(C)(C)CCN1C(=O)[C@H](CC(=O)N2CCC(N3CCc4ccccc4NC3=O)CC2)SC1c1cccc(F)c1N1CCC(N2CCCCC2)CC1 (stereo partly drawn) [Compound 550] | –
3 | < 5.30 | 5.30 to 6.00 | CC(C)(C)CCN1C(=O)[C@H](CC(=O)N2CCC(n3c(=O)[nH]c4ncccc43)CC2)SC1c1cccc(F)c1C1CCN(C(=O)OC(C)(C)C)CC1 (stereo partly drawn) [Compound 551] | –
4 | > 6.00 | > 6.00 | CC(C)(C)CCN1C(=O)[C@H](CC(=O)N2CCC(N3CCc4ccccc4NC3=O)CC2)S[C@@H]1c1cccc(F)c1C1CCNCC1 [Compound 552, 3-(1-(2-((2R,5S)-2-(3-fluoro-2-(piperidin-4-yl)phenyl)-3-(3,3-dimethylbutyl)-4-oxothiazolidin-5-yl)acetyl)piperidin-4-yl)-4,5-dihydro-1H-benzo[d][1,3]diazepin-2(3H)-one] | –
5 | 5.30 to 6.00 | > 6.00 | CC(C)(C)CCN1C(=O)[C@H](CC(=O)N2CCC(N3CCc4ccccc4NC3=O)CC2)S[C@H]1c1cccc(F)c1C1CCNCC1 [Compound 553, 3-(1-(2-((2S,5S)-2-(3-fluoro-2-(piperidin-4-yl)phenyl)-3-(3,3-dimethylbutyl)-4-oxothiazolidin-5-yl)acetyl)piperidin-4-yl)-4,5-dihydro-1H-benzo[d][1,3]diazepin-2(3H)-one] | –
6 | > 6.00 | > 6.00 | CC(C)(C)CCN1C(=O)[C@H](CC(=O)N2CCC(n3c(=O)[nH]c4ncccc43)CC2)S[C@@H]1c1cccc(F)c1C1CCNCC1 [Compound 554] | –
7 | 5.30 to 6.00 | > 6.00 | CC(C)(C)CCN1C(=O)[C@H](CC(=O)N2CCC(n3c(=O)[nH]c4ncccc43)CC2)S[C@H]1c1cccc(F)c1C1CCNCC1 [Compound 555] | –
8 | > 6.00 | > 6.00 | CC(C)(C)CCN1C(=O)[C@H](CC(=O)N2CCC(n3c(=O)[nH]c4ncccc43)CC2)SC1c1cccc(F)c1N1CCC(c2ccncc2)CC1 (stereo partly drawn) [Compound 556] | –
9 | – | – | CGRP (8-37): a peptide CGRP antagonist (VTHRLAGLLSRSGGVVKNNFVPTNVGSKAF; ends and bridges not checked; UniProt P06881 90-119, looked up, fragment) | effect on increase of middle meningeal artery diameter (middle meningeal artery): blocked; effect on increased facial blood flow (facial blood flow [4]): inhibited
